The test system of assay [1] is PCNA. Nature of the assay: Intrinsic tryptophan fluorescence quenching of PCNA by p150L. The assay is classed as binding, human. The following applies: 5 µM PCNA monomer + 20 µM p150L, excitation 280 nm, 10 mM sodium phosphate pH 7.2, 10 mM NaCl, 0.1 mM TCEP, room temperature. The procedure:
Fluorescence experiments were performed on an Agilent Cary Eclipse fluorimeter at room temperature. Buffer conditions were identical for all protein components (10 mM sodium phosphate, pH 7.2, 10 mM NaCl, 0.1 mM TCEP). Samples were excited at A280nm with a 5 nm bandwidth and the emission spectra between 295 nm and 420 nm were collected. Measurements were made for 5 μM PCNA monomer (1 tryptophan residue), 20 μM CAF-1 p150L (no tryptophan and tyrosine residues), and a mixture containing 5 μM PCNA monomer and 20 μM CAF-1 p150L. Both samples were extensively dialyzed against the same buffer and prepared from stock samples to ensure identical conditions.

The test system of assay [2] is PCNA. In words: NMR 1H-15N BEST HSQC of 15N-p150L with PCNA. The assay is classed as binding, human. Particulars: 50 μM p150L, 400 μM PCNA monomer, 10 mM sodium phosphate pH 7.2, 10 mM NaCl, 293K. On the procedure: NMR experiments were carried out on a 600 MHz Bruker Avance III spectrometer equipped with a 5 mm QCIP cryoprobe with Z gradients. All experiments were carried out at 293K. Two-dimensional ^1H-^15N BEST HSQC [60] experiments were carried out using the sequences downloaded from the NMRlib suite of pulse sequences. Selective shaped pulses were used to excite a ^1H sweep width of 4.5 ppm, centered at 8.75 ppm, with a recycle delay of 0.2 s. ^1H and ^15N sweep widths were set to 8417.509 Hz (14 ppm) and 1920.466 Hz (31.6 ppm) respectively, typically 240 t1 increments were acquired. NMR samples were prepared in 10 mM sodium phosphate buffer, pH 7.2, 10 mM NaCl, and 90% H2O/10% D2O. Uniformly ^15N labelled CAF-1 p150L and unlabeled PCNA were prepared in identical buffers and added together from stock samples. Final sample concentrations were at 50 μM for CAF-1 p150L and 400 μM PCNA monomer. NMR spectra were processed with NMRpipe, a multidimensional spectral system based on UNIX pipes.

Assay [3] has as its system DNA. Nature of the assay: Co-purification with nucleic acid (DNA binding). Particulars: purification of p150L; high salt washes combined with benzonase required to remove nucleic acid. The source says:
An unusually long α-helix (119 amino acids) is predicted to end abruptly in the PIP RFF residues. The CAF-1 p150 PIP is surrounded by a red rectangle. To address this surprising prediction, CAF-1 p150 fragments that contained the predicted long α-helix including the PIP were expressed in E. coli, purified, and their biochemical and biophysical properties were characterized. This fragment of human p150 (Figure 5, residues 342–474) was expressed as a His-tagged fusion protein, hereafter referred to as CAF-1 p150L. […] Further treatment with benzonase and three sequential 1 M NaCl washes were required to remove the contamination.
S2. Expression and purification of p150L in Escherichia coli
A DNA fragment encoding human p150 residues 342-475 was cloned into the pET28a vector (kanamycin resistant) in-frame with a C-terminal 6X-histidine tag. For p150L ex-pression, this plasmid was transformed into Escherichia coli BL21(DE3) RIL cells (Strata-gene). Single colonies were inoculated and grown overnight to saturation at 37°C in 2X YT medium containing 50 µg/ml kanamycin. The next day, cells were diluted and grown to mid-exponential phase (A600nm = 0.6 - 0.8) at 37°C and protein expression was induced at 20°C with 0.5 mM isopropyl-β-D-thiogalactopyranoside (IPTG) for 16 h. […]

Assay [4] relates to replication-coupled chromatin assembly. The following applies: ref [18], cited from earlier work. The source says:
CAF-1 is composed of three subunits, conserved from yeast to human. In humans, mice, and Xenopus, the three subunits of CAF-1 are p150 (CHAF1A), p60 (CHAF1B), and RbAp48 (RBBP4). p150 contains two regions that bind PCNA. The first is a motif located within the N-terminal domain of p150 that we previously referred to as the PCNA binding domain (PBD) (Figure 1A). […] In order to probe this further, we determined the preliminary model of the structure of CAF-1 p150 PIP bound to PCNA based on a molecular replacement solution that could not be refined further. We report here that the CAF-1 PIP binds to PCNA in an unprecedented manner.

For assay [5], the system named is PCNA. The following applies: in vitro; ref [18]; cited from earlier work. The source says:
CAF-1 is composed of three subunits, conserved from yeast to human. In humans, mice, and Xenopus, the three subunits of CAF-1 are p150 (CHAF1A), p60 (CHAF1B), and RbAp48 (RBBP4). p150 contains two regions that bind PCNA. The first is a motif located within the N-terminal domain of p150 that we previously referred to as the PCNA binding domain (PBD) (Figure 1A). […] I ... || Similarly, the CAF-1 PIP box sequence of Msh3, which is a part of the DNA mismatch repair machinery, is 19-[…]-41 and in accordance with the canonical sequence, the first PIP box residue corresponds to a glutamine, whereas in contrast, in the PIP box of CAF-1 this is replaced by a lysine at this position, thus making the binding mode of CAF-1 p150 non-canonical and unique in the case of human CAF-1 sequence 442-[…]-449 and mouse CAF-1 sequence 421-[…]-428. Previous research from our lab has also shown that substitution of the CAF-1 p150 lysine by a glutamine to ...

Where two headings read alike, the source gives them in different places.

As to “CAF-1 p150L: fragment of human p150 (residues 342–474) expressed as a His-tagged fusion protein”, the “quenching of PCNA tryptophan fluorescence / binding” value is “quenched a small portion of the tryptophan signal derived from PCNA” in assay [1] and “weak binding” in assay [1] (listed as p150L). Moreover, the “NMR signal changes on mixing with PCNA” value in assay [2] is on record as “some of the well-resolved peaks corresponding to CAF-1 p150L disappeared or were significantly shifted”; in assay [2] (listed as p150L), “most of the p150L spectrum disappears”. Besides, the “DNA / nucleic acid binding” value in assay [3] was “co-purified with nucleic acid contamination”.

Consider KAEITRFF [PIP of p150], for which the “role or effect in chromatin assembly” value in assay [4] (listed as CAF-1 PIP) is listed as “preferentially inhibit nucleosome assembly over DNA synthesis”; in assay [4], “essential for chromatin assembly”. Further, in assay [5], the “binding to PCNA” value is on record as “shows weaker affinity for PCNA”.

The values above are taken from publication PMC9570017, “Unorthodox PCNA Binding by Chromatin Assembly Factor 1” (International Journal of Molecular Sciences, 2022).
